Experimental data reported in BigSolDB 2.1.

Clc1ccc2c(c1)Nc1ccccc1S2
solubility (mole fraction) (in 2-butanone, 283.15 K): 0.0337
solubility (mole fraction) (in 2-butanone, 285.65 K): 0.0356
solubility (mole fraction) (in 2-butanone, 288.15 K): 0.0378
solubility (mole fraction) (in 2-butanone, 290.65 K): 0.0402
solubility (mole fraction) (in 2-butanone, 293.15 K): 0.0427
solubility (mole fraction) (in 2-butanone, 295.65 K): 0.0455
solubility (mole fraction) (in 2-butanone, 298.15 K): 0.0484
solubility (mole fraction) (in 2-butanone, 300.65 K): 0.0513
solubility (mole fraction) (in 2-butanone, 303.15 K): 0.0546
solubility (mole fraction) (in 2-butanone, 305.65 K): 0.0578
solubility (mole fraction) (in 2-butanone, 308.15 K): 0.0612
solubility (mole fraction) (in 2-butanone, 310.65 K): 0.0646
solubility (mole fraction) (in 2-butanone, 313.15 K): 0.0683
solubility (mole fraction) (in 2-butanone, 315.65 K): 0.0727
solubility (mole fraction) (in 2-butanone, 318.15 K): 0.0771
solubility (mole fraction) (in acetone, 283.15 K): 0.0268
solubility (mole fraction) (in acetone, 285.65 K): 0.0281
solubility (mole fraction) (in acetone, 288.15 K): 0.03
solubility (mole fraction) (in acetone, 290.65 K): 0.0317
solubility (mole fraction) (in acetone, 293.15 K): 0.0336
solubility (mole fraction) (in acetone, 295.65 K): 0.0356
solubility (mole fraction) (in acetone, 298.15 K): 0.0378
solubility (mole fraction) (in acetone, 300.65 K): 0.0399
solubility (mole fraction) (in acetone, 303.15 K): 0.0421
solubility (mole fraction) (in acetone, 305.65 K): 0.0443
solubility (mole fraction) (in acetone, 308.15 K): 0.0469
solubility (mole fraction) (in acetone, 310.65 K): 0.0493
solubility (mole fraction) (in acetone, 313.15 K): 0.0518
solubility (mole fraction) (in acetone, 315.65 K): 0.0544
solubility (mole fraction) (in acetone, 318.15 K): 0.0575
solubility (mole fraction) (in acetonitrile, 283.15 K): 0.00354
solubility (mole fraction) (in acetonitrile, 285.65 K): 0.00378
solubility (mole fraction) (in acetonitrile, 288.15 K): 0.00406
solubility (mole fraction) (in acetonitrile, 290.65 K): 0.00435
solubility (mole fraction) (in acetonitrile, 293.15 K): 0.00467
solubility (mole fraction) (in acetonitrile, 295.65 K): 0.00498
solubility (mole fraction) (in acetonitrile, 298.15 K): 0.00532
solubility (mole fraction) (in acetonitrile, 300.65 K): 0.00564
solubility (mole fraction) (in acetonitrile, 303.15 K): 0.006
solubility (mole fraction) (in acetonitrile, 305.65 K): 0.00633
solubility (mole fraction) (in acetonitrile, 308.15 K): 0.00672
solubility (mole fraction) (in acetonitrile, 310.65 K): 0.0071
solubility (mole fraction) (in acetonitrile, 313.15 K): 0.00756
solubility (mole fraction) (in acetonitrile, 315.65 K): 0.00795
solubility (mole fraction) (in acetonitrile, 318.15 K): 0.00837
solubility (mole fraction) (in ethanol, 283.15 K): 0.00431
solubility (mole fraction) (in ethanol, 285.65 K): 0.00446
solubility (mole fraction) (in ethanol, 288.15 K): 0.00465
solubility (mole fraction) (in ethanol, 290.65 K): 0.00486
solubility (mole fraction) (in ethanol, 293.15 K): 0.00505
solubility (mole fraction) (in ethanol, 295.65 K): 0.00525
solubility (mole fraction) (in ethanol, 298.15 K): 0.00546
solubility (mole fraction) (in ethanol, 300.65 K): 0.00569
solubility (mole fraction) (in ethanol, 303.15 K): 0.00592
solubility (mole fraction) (in ethanol, 305.65 K): 0.00617
solubility (mole fraction) (in ethanol, 308.15 K): 0.00641
solubility (mole fraction) (in ethanol, 310.65 K): 0.00667
solubility (mole fraction) (in ethanol, 313.15 K): 0.00695
solubility (mole fraction) (in ethanol, 315.65 K): 0.00723
solubility (mole fraction) (in ethanol, 318.15 K): 0.00756
solubility (mole fraction) (in ethyl acetate, 283.15 K): 0.0156
solubility (mole fraction) (in ethyl acetate, 285.65 K): 0.0173
solubility (mole fraction) (in ethyl acetate, 288.15 K): 0.0194
solubility (mole fraction) (in ethyl acetate, 290.65 K): 0.0216
solubility (mole fraction) (in ethyl acetate, 293.15 K): 0.024
solubility (mole fraction) (in ethyl acetate, 295.65 K): 0.0265
solubility (mole fraction) (in ethyl acetate, 298.15 K): 0.0291
solubility (mole fraction) (in ethyl acetate, 300.65 K): 0.0323
solubility (mole fraction) (in ethyl acetate, 303.15 K): 0.0357
solubility (mole fraction) (in ethyl acetate, 305.65 K): 0.0397
solubility (mole fraction) (in ethyl acetate, 308.15 K): 0.0435
solubility (mole fraction) (in ethyl acetate, 310.65 K): 0.0484
solubility (mole fraction) (in ethyl acetate, 313.15 K): 0.0528
solubility (mole fraction) (in ethyl acetate, 315.65 K): 0.0575
solubility (mole fraction) (in ethyl acetate, 318.15 K): 0.0625
solubility (mole fraction) (in isopropanol, 283.15 K): 0.0038
solubility (mole fraction) (in isopropanol, 285.65 K): 0.00397
solubility (mole fraction) (in isopropanol, 288.15 K): 0.00415
solubility (mole fraction) (in isopropanol, 290.65 K): 0.00433
solubility (mole fraction) (in isopropanol, 293.15 K): 0.00454
solubility (mole fraction) (in isopropanol, 295.65 K): 0.00473
solubility (mole fraction) (in isopropanol, 298.15 K): 0.00493
solubility (mole fraction) (in isopropanol, 300.65 K): 0.00513
solubility (mole fraction) (in isopropanol, 303.15 K): 0.00536
solubility (mole fraction) (in isopropanol, 305.65 K): 0.00556
solubility (mole fraction) (in isopropanol, 308.15 K): 0.0058
solubility (mole fraction) (in isopropanol, 310.65 K): 0.00605
solubility (mole fraction) (in isopropanol, 313.15 K): 0.0063
solubility (mole fraction) (in isopropanol, 315.65 K): 0.00657
solubility (mole fraction) (in isopropanol, 318.15 K): 0.00687
solubility (mole fraction) (in methanol, 283.15 K): 0.00465
solubility (mole fraction) (in methanol, 285.65 K): 0.00483
solubility (mole fraction) (in methanol, 288.15 K): 0.00502
solubility (mole fraction) (in methanol, 290.65 K): 0.00525
solubility (mole fraction) (in methanol, 293.15 K): 0.00545
solubility (mole fraction) (in methanol, 295.65 K): 0.0057
solubility (mole fraction) (in methanol, 298.15 K): 0.00594
solubility (mole fraction) (in methanol, 300.65 K): 0.0062
solubility (mole fraction) (in methanol, 303.15 K): 0.00647
solubility (mole fraction) (in methanol, 305.65 K): 0.00673
solubility (mole fraction) (in methanol, 308.15 K): 0.00701
solubility (mole fraction) (in methanol, 310.65 K): 0.00728
solubility (mole fraction) (in methanol, 313.15 K): 0.00758
solubility (mole fraction) (in methanol, 315.65 K): 0.00786
solubility (mole fraction) (in methanol, 318.15 K): 0.00819
solubility (mole fraction) (in n-butanol, 283.15 K): 0.00328
solubility (mole fraction) (in n-butanol, 285.65 K): 0.00344
solubility (mole fraction) (in n-butanol, 288.15 K): 0.00361
solubility (mole fraction) (in n-butanol, 290.65 K): 0.00381
solubility (mole fraction) (in n-butanol, 293.15 K): 0.00401
solubility (mole fraction) (in n-butanol, 295.65 K): 0.00422
solubility (mole fraction) (in n-butanol, 298.15 K): 0.00445
solubility (mole fraction) (in n-butanol, 300.65 K): 0.00468
solubility (mole fraction) (in n-butanol, 303.15 K): 0.00492
solubility (mole fraction) (in n-butanol, 305.65 K): 0.00518
solubility (mole fraction) (in n-butanol, 308.15 K): 0.00543
solubility (mole fraction) (in n-butanol, 310.65 K): 0.0057
solubility (mole fraction) (in n-butanol, 313.15 K): 0.00596
solubility (mole fraction) (in n-butanol, 315.65 K): 0.00624
solubility (mole fraction) (in n-butanol, 318.15 K): 0.00653
solubility (mole fraction) (in n-propanol, 283.15 K): 0.0041
solubility (mole fraction) (in n-propanol, 285.65 K): 0.00426
solubility (mole fraction) (in n-propanol, 288.15 K): 0.00446
solubility (mole fraction) (in n-propanol, 290.65 K): 0.00466
solubility (mole fraction) (in n-propanol, 293.15 K): 0.00487
solubility (mole fraction) (in n-propanol, 295.65 K): 0.00509
solubility (mole fraction) (in n-propanol, 298.15 K): 0.0053
solubility (mole fraction) (in n-propanol, 300.65 K): 0.00552
solubility (mole fraction) (in n-propanol, 303.15 K): 0.00575
solubility (mole fraction) (in n-propanol, 305.65 K): 0.006
solubility (mole fraction) (in n-propanol, 308.15 K): 0.00622
solubility (mole fraction) (in n-propanol, 310.65 K): 0.00649
solubility (mole fraction) (in n-propanol, 313.15 K): 0.00678
solubility (mole fraction) (in n-propanol, 315.65 K): 0.00705
solubility (mole fraction) (in n-propanol, 318.15 K): 0.00737
